Key:
[1] = Histologic examination of tissue / systemic off-target effects; type: in vivo, Balb/c athymic mice
Description: Histologic examination of tissue. Organs of athymic male mice stained with H&E, Trichrome or Giemsa were microscopically examined by a mouse pathologist in a blinded fashion, and toxicity scored using an established semi-quantitative histological scoring system (Knodell, R. G. et al., Hepatology 1, 431-5 (1981)) (FIG. 14). The following clinical chemistry parameters were measured in blood of CD1 male and female mice by Charles River Research Animal Diagnostic Services: cholesterol, triglycerides, alanine aminotransferase (ALT), aspartate aminotransferase (AST), total bilirubin, glucose, phosphorus, total protein, calcium, blood urea nitrogen (BUN), creatinine, albumin, Na, K, Cl, white blood cells (with differential), red blood cells, hemoglobin, and platelets.
After 35 days of treatment, the following organs were harvested at necropsy, and stained with H&E (alternative staining methods as indicated): heart, lungs, esophagus, stomach, colon, small intestine, liver (Trichrome staining), kidneys (Trichrome staining), adrenals, bladder, prostate, spleen, pancreas, brain, testes, and bone marrow and peripheral blood (Giemsa staining). Organs were examined for damage using a semi-quantitative histological scoring system, as described (Knodell, R. G. et al., Hepatology 1, 431-5 (1981)). […] Note that mice were immunocompromised, and that changes in the liver reflected episodic and minor foci of necrosis, consistent with a prior resolved infection; clinically, mice were all healthy. The graph above depicts the scoring of liver lesions, with each data point representing a single mouse.

[2] = system: PC3-M cells; experiment: Boyden chamber cell invasion assay, PC3-M cells; type: cell-based, human
Description: Following the synthetic strategy outlined in FIG. 1a, 4′,5,7-trihydroxyisoflavone was used as the chemical scaffold. […] Note, demethylation within the cell cannot be predicted. Therefore, the loss of function was considered to be informative for methylated compounds. […] This adds further evidence of the importance of the C4′-hydroxyl for activity. […] For cell invasion, PC3-M cells were treated with 10 μM compound for a total of 3 days, and cell invasion assays were run at the end of the 3 day period, in the presence of compound. Values are the mean±SEM of three separate experiments, each run in replicates of N=3. […] Values are the mean±SEM of a single experiment, in replicates of N=4, repeated at least once (also N=4). […] The initial structure-activity relationship (SAR) data informed the second round of compound synthesis. […] Compared to 4′,5,7-trihydroxyisoflavone, KBU2046 is non-planar, lacks hydroxyl groups, and particularly those that mediate ER binding, is halogen-substituted, and has a distinctly different biological profile. These characteristics place KBU2046 in a chemically distinct class, compared to the starting compound.
Cell Invasion Assays. Boyden chamber cell invasion assays were performed as previously described^9, using either denatured collagen (BD Biosciences) or type IV human collagen (BD Biosciences), with the experiments repeated, each in N=4 replicates. In some experiments, as indicated, cells were transfected with an expression plasmid, using Lipofectamine 2000™ (Invitrogen), or with siRNA, using DharmaFect Duo (Thermo Scientific) and co-transfected with β-Galactosidase (Plasmid pCMV⋅SPORT-βgal; Life Technology).
The initial round of synthesis was designed to examine the removal of individual chemical fragments. In this manner, the importance of these functional groups in mediating efficacy (inhibition of cell invasion) could be determined. […] Initial assays were performed with PC3 and PC3-M cells. However, as these studies yielded similar findings, subsequent screening assays utilized only PC3-M cells. In designing chemical synthetic routes, priority was given to efficacy and toxicity parameters. […] These additional design features included removal of fragments that mediated genistein binding to the estrogen receptor (ER), as determined by ER-genistein 3D x-ray crystal structures (Protein Data Base IDs: 1X7R and 1X7J, for crystal structures of ERα and ERβ with bound genistein, respectively). These features also included removal of chemical fragments that are considered to increase susceptibility to rapid metabolism, for example by the cytochrome P450 (CYP) pathway. The final feature involved incorporation of chemical characteristics previously shown to be associated with effective drugs and which together generally impart more favorable pharmacologic properties, including those described by Lipinski et al. (Lipinski, C. A. et al., Adv Drug Deliv Rev 46, 3-26 (2001)).

[3] = target: T1, estrogen receptor (ER) (Homo sapiens, UniProt P03372); experiment: pERE-Luc estrogen receptor reporter assay in MCF-7 cells; type: cell-based; conditions: 24 hours, micromolar concentrations
T1 construct: estrogen receptor positive MCF-7 cells; endogenous in cells; host or cells: MCF-7
From the text: Values are the mean±SD of a single experiment, with similar results seen in a separate repeat experiment, both in replicates of N=2.
Constructs, Transfection, and Luciferase Assays. Constructs were purchased or gifts: constitutive active MEK4EE (MAP2K4-EE; residues 37-399; Addgene, plasmid 14813), pRL-TK-Renilla luciferase (Promega), pCMV-β-galactosidase (Agilent Technologies), and pcDNA-GFP (Invitrogen), HSP90β was from Pawel Bieganowski (Mossakowski Medical Research Center PAS, Poland) (Zurawska, A. et al., Biochim Biophys Acta 1803, 575-83 (2010)), estrogen responsive promoter-luciferase reporter construct, pERE-Luc, was from Craig Jordan (Georgetown University) (Catherino, W. H. et al., Cancer Lett 92, 39-47 (1995)), human CDC37 in pET15b plasmid was from Avrom Caplan (City College of New York) (Rao, J. et al., J Biol Chem 276, 5814-20 (2001)). siRNA used Dharmacon ON-Targetplus SMARTpool™ siRNA directed against HSP90β (cat #L-005187-00-0010) non-targeting siRNA (cat #D-001810-10-05), used TransIT-LT1 Transfection Reagent (Mirus Bio LLC), or with Dharmafect Duo (Thermo Scientific, Lafayette, Colo.) for co-delivery of plasmid. Luciferase assays were performed as described (Breen, M. J. et al., PLoS One 8, e72407 (2013)).
Luciferase activity was measured, normalized to that of β-gal, and values expressed as the percent of untreated vector control cells.

T1 sequence (P03372 whole entry): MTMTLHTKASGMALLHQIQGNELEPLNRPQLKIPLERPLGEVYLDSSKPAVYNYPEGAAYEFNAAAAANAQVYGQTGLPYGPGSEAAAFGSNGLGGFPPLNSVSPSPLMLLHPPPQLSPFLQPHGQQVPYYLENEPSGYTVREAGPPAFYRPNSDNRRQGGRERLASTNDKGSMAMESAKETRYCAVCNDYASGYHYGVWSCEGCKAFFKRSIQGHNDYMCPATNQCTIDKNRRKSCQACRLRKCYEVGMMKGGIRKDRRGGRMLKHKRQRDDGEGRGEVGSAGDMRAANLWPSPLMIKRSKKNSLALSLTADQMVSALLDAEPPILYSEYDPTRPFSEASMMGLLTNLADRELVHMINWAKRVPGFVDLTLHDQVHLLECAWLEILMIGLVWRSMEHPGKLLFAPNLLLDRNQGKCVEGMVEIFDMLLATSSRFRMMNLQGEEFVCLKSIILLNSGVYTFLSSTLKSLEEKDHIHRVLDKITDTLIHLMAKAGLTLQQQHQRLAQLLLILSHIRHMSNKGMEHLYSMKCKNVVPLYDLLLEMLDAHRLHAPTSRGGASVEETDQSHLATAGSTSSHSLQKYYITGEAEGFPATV

O=C1c2ccccc2OCC1c1ccc(F)cc1 (racemic) [KBU2046, (±)-3(4-fluorophenyl)chroman-4-one]
changes in the liver ([1]; 35 days of treatment in chow): not increased by KBU2046 treatment
organ damage (histological scoring) ([1]; 35 days of treatment in chow): No organ damage was observed, except in the livers of both control and treatment mice
off-target effects (tumor growth, behavior, weight, histology, serum chemistry) ([1]; mouse, in vivo): failed to identify KBU2046-associated off-target effects
effect on cell invasion ([2]; 10 μM compound, 3 days): anti-invasive efficacy at least equal to that of the starting compound
inhibition of cell invasion ([2]; (S226A)-HSP90β transfected PC3-M cells): does not further inhibit cell invasion
inhibition of cell invasion ([2]; (S226D)-HSP90β transfected PC3-M cells): did not significantly inhibit cell invasion
anti-invasion efficacy under TGFβ-stimulated invasion ([2]; PC3-M cells, ±TGFβ): retains efficacy
inhibition of cell invasion ([2]; VC and WT-HSP90β transfected PC3-M cells): significantly inhibited invasion
efficacy on cell invasion ([2]; siRNA-mediated HSP90β knockdown): abrogated KBU2046 efficacy
inhibition of cell invasion ([2]; vector control (VC) transfected PC3-M cells): significantly inhibits invasion
activation of the estrogen receptor [3]: does not activate the estrogen receptor (ER)

— patent US20210293825A1, “METHODS FOR PRECISION THERAPEUTIC TARGETING OF HUMAN CANCER CELL MOTILITY AND KITS THEREOF” (UNITED STATES GOVERNMENT AS REPRESENTED BY THE DEPARTMENT …, priority 2018, published 2021)
